This note sets out measurements from patent US10626089B2, “Quinoline derivative in crystal form” (GB001, Inc., priority 2016, dated 2020).

Where a name gives a salt, the structure may show the parent alone.

A short description of data set [1]: Storage stability: total related substances by liquid chromatography before and after storage. It counts as physicochemical. Particulars: for total amount of related substances (produced impurities), at the start: before storage; for total amount of related substances (produced impurities), at the start / total amount of related substances (produced impurities), after 3 months: liquid chromatography, related substances measured to ≥0.03%; for total amount of related substances (produced impurities), after 3 months: tightly sealed glass vessel, relative humidity 75° C. Here is the method:
The storage stability of the compound (I) crystal form A obtained in example 1 was compared with that of the free-form crystals obtained in comparative example 1.
The respective crystals were introduced into a glass vessel which was then tightly sealed and stored at 40° C., relative humidity […] for 3 months; the amount of related substances before and after storage was measured by liquid chromatography; the results are shown in Table 1. The values are the total amount of related substances, which are produced impurities, as measured to ≥0.03%.

Data set [2] is described as follows: Retention of water of crystallization on heated drying under reduced pressure. The class given is physicochemical. Particulars: 80° C. An excerpt:
Inventive crystal form B of compound (I) is a hydrate crystal form, and can be obtained using a combination of solvents that includes water. Alcohols such as ethanol and 2-propanol are preferred as the solvent used in combination with water. For example, the crystal form can be obtained by dissolving compound (I) in a mixed solvent containing ethanol and water at a ratio of 1:1 (80×volume), concentrating and then drying. The drying can comprise natural drying, drying under reduced pressure, heated drying, or heated drying under reduced pressure.

One may read the melting point as the temperature, or range, at which the solid turns liquid. Compound `CCc1nc2c(Cl)ccc(OCC(=O)O)c2c(OC(F)F)c1Cc1ccc(Cl)cc1` (as salt: salt) [Free-form crystals, [8-chloro-3-(4-chlorobenzyl)-4-difluoromethoxy-2-ethylquinolin-5-yloxy]acetic Acid] came in with a melting point of 141 °C.

In the case of `CCc1nc2c(Cl)ccc(OCC(=O)O)c2c(OC(F)F)c1Cc1ccc(Cl)cc1.NCCCC[C@H](N)C(=O)O` [Compound (I) crystal form A, [8-chloro-3-(4-chlorobenzyl)-4-difluoro-methoxy-2-ethylquinolin-5-yloxy]acetic Acid L-Lysine Salt in Crystal Form A], the “storage stability compared with the free-form crystals” value in data set [1] (40° C., relative humidity 75, 3 months) is listed as “better storage stability than the free-form crystals”. Also, the “total amount of related substances (produced impurities), at the start” value in data set [1] was 0.53%. For the same compound, the “total amount of related substances (produced impurities), after 3 months” value in data set [1] (40° C.) turned out to be 0.59%.

Take `CCc1nc2c(Cl)ccc(OCC(=O)O)c2c(OC(F)F)c1Cc1ccc(Cl)cc1` [Free-form crystals, [8-chloro-3-(4-chlorobenzyl)-4-difluoromethoxy-2-ethylquinolin-5-yloxy]acetic Acid, reference compound]: the “total amount of related substances (produced impurities), at the start” value in data set [1] came out at 1.37%. Besides, the “total amount of related substances (produced impurities), after 3 months” value in data set [1] (40° C.) is 1.95%.

For `CCc1nc2c(Cl)ccc(OCC(=O)O)c2c(OC(F)F)c1Cc1ccc(Cl)cc1.NCCCC[C@H](N)C(=O)O` [crystal form B of compound (I), [8-chloro-3-(4-chlorobenzyl)-4-difluoro-methoxy-2-ethylquinolin-5-yloxy]acetic Acid L-Lysine Salt in Crystal Form B], the “loss of water of crystallization” value in data set [2] is “no water of crystallization is lost even at 80 °C”.
